Data on 15 molecules can be found in publication PMC9329436, “Optimization of the 4-anilinoquin(az)oline scaffold as epidermal growth factor receptor (EGFR) inhibitors for chordoma utilizing a toxicology profiling assay platform” (Scientific Reports, 2022).

The first data set concerns HL60 cells. Kind of data set: AsedaSciences SYSTEMETRIC Cell Health Screen (flow cytometry toxicity profiling). As to conditions: HL60, 4 h, 5 nM–100 µM, probability 0–1, n = 2. From the text:
To prioritize further optimization, in addition to cellular potency, we utilized the AsedaSciences® […]® Cell Health Screen. This live cell flow cytometry (FC) screen was developed to assess human safety risk for candidate pharmaceutical small molecules at the early hit-to-lead stage of development. The screen works by estimating the risk using a supervised machine learning (ML) classifier to assess a multiparametric cellular stress phenotype, produced by the test compound, relative to a training set of known compounds (Table S1). This screen has been designed for early pipeline risk estimation regardless of pharmaceutical class/disease type, so it uses HL60 as the reporter cell line.
The ML classifier was trained with 300 historically known compounds (on market or withdrawn drugs, research compounds, etc.), which were divided into two outcome classes based upon literature, clinical trials, and market histories where applicable. This external curation informed an outcome of “high-risk” or “low-risk”. All 300 compounds were also processed through the automated FC screen, populating each of the two classes with frequency distributions of empirical cell-based phenotypes.
To estimate human safety risk for an unknown compound, the ML classifier assesses the similarity of the test compound’s cell-based phenotype to the distributions of phenotypes in the two outcome classes. […] Phenotypes are derived from twelve FC detection parameters, including light scatter and a series of fluorescent physiological reporter dyes, that track cell stress-related endpoints.
To produce the Cell Health Index, the ML classifier uses all twelve FC parameters simultaneously in a multidimensional logistic regression model, so the CHI contains the most predictive power. In addition to the Cell Health Index, Table 4 also reports probability scores for eight cell stress-related endpoints. These scores are produced individually by passing information to the ML classifier relating to parameters that inform that endpoint. For example, to produce the cell morphology (CM) score, the ML classifier only uses the FC detection parameters for forward scatter (informing change in cell diameter) and side scatter (informing change in optical granularity of the cell) to inform the model. Together, these eight endpoints provide a “biological fingerprint”, allowing assessment of the degree to which SAR series members behave differently across endpoints.
In a 384-well platform, HL60 cells were exposed to a 10-step, 3 × dilution series of each test compound (5 nM–100 µM) for 4 h at 37 °C with 5% CO2. Each dilution series was screened in duplicate, occupying a total of 20 wells, allowing 16 test compounds to be assayed per plate. Each row contained one positive and one negative control well, for a total of 16 replicate positive/negative control pairs on each assay plate. Compound formatting, cell deposition, and dye application were performed robotically so that final assay conditions comprised 100,000 cells in a 40 µL volume. After the 4 h compound exposure, cells were immediately stained with a panel of fluorescent dyes that report physiological signatures of both mitochondrial dysfunction and gross cell stress. Fluorescence and forward/side-scatter data were collected using automated FC with no gating. FC data are processed by an automated algorithm for producing quality control measures and ML classification of compound phenotypes. • 2. HL60 cell culture production
HL60 cells were produced as suspension cultures in glass 850 cm^2 roller bottles with vented caps, at 1 RPM, 5% CO2, and 37 °C. […] Culture density was maintained at or below 1 × 10^6 cells/mL.
On to `[H]/N=C(/N)N/C(=N/[H])NCCc1ccccc1` [Phenformin, reference compound], for which the “CC: Cell Cycle score” value is listed as 0.28, the “CM: Cell morphology score” value is listed as 0.74, the “CMI: Cell membrane integrity score” value amounted to 0.27 and the “GSH: Glutathione score” value was found to be 0.17. For the same molecule, the “MMP: Mitochondrial membrane depolarization score” value turned out to be 0.37, the “NMI1: Nuclear membrane integrity 1 score” value worked out at 0.82, the “NMI2: Nuclear membrane integrity 2 score” value amounted to 0.080 and the “ROS: Reactive superoxide species score” value amounted to 0.77.
`CC(C(=O)O)c1cccc(C(=O)c2ccccc2)c1` (stereo not shown) [Ketoprofen, reference compound]: the “CC: Cell Cycle score” value came out at 0.050, the “CM: Cell morphology score” value stood at 0.00, the “CMI: Cell membrane integrity score” value was determined as 0.030 and the “GSH: Glutathione score” value turned out to be 0.010. For the same molecule, the “MMP: Mitochondrial membrane depolarization score” value is 0.010 and the “ROS: Reactive superoxide species score” value is on record as 0.18.
For the molecule `COc1cc2c(Nc3ccc(Cl)c(Cl)c3F)ncnc2cc1OC[C@@H]1C[C@@H]2CN(C)C[C@@H]2C1` [Tesevatinib, reference compound], the “CC: Cell Cycle score” value is on record as 0.96, the “CM: Cell morphology score” value turned out to be 1.00, the “CMI: Cell membrane integrity score” value was determined as 1.00 and the “GSH: Glutathione score” value came to 1.00. Further, the “MMP: Mitochondrial membrane depolarization score” value was 1.00, the “NMI1: Nuclear membrane integrity 1 score” value is 0.91, the “NMI2: Nuclear membrane integrity 2 score” value was found to be 0.99 and the “ROS: Reactive superoxide species score” value was 1.00.
As for `NC(=O)c1ncn([C@@H]2O[C@H](CO)[C@@H](O)[C@H]2O)n1` [Ribavirin, reference compound], the “CC: Cell Cycle score” value is 0.040, the “CM: Cell morphology score” value worked out at 0.010, the “CMI: Cell membrane integrity score” value is given as 0.070 and the “GSH: Glutathione score” value came out at 0.060. In addition, the “MMP: Mitochondrial membrane depolarization score” value came out at 0.000, the “NMI1: Nuclear membrane integrity 1 score” value is recorded as 0.16, the “NMI2: Nuclear membrane integrity 2 score” value worked out at 0.030 and the “ROS: Reactive superoxide species score” value turned out to be 0.23.
For the molecule `CCCCc1oc2ccccc2c1C(=O)c1cc(I)c(OCCN(CC)CC)c(I)c1` [Amiodarone, reference compound], the “CC: Cell Cycle score” value is on record as 0.96, the “CM: Cell morphology score” value stood at 0.97, the “CMI: Cell membrane integrity score” value was 0.80 and the “MMP: Mitochondrial membrane depolarization score” value stood at 0.87. For the same molecule, the “ROS: Reactive superoxide species score” value is 0.19.
Turning to `C=C(C)[C@H]1Cc2c(ccc3c2O[C@@H]2COc4cc(OC)c(OC)cc4[C@@H]2C3=O)O1` [Rotenone, reference compound], the “CC: Cell Cycle score” value was 0.70, the “CM: Cell morphology score” value stood at 0.93, the “CMI: Cell membrane integrity score” value came to 0.83 and the “GSH: Glutathione score” value came to 0.79. Further, the “MMP: Mitochondrial membrane depolarization score” value is on record as 0.99, the “NMI1: Nuclear membrane integrity 1 score” value is given as 0.54, the “NMI2: Nuclear membrane integrity 2 score” value worked out at 0.76 and the “ROS: Reactive superoxide species score” value was 0.94.
`O=C(O)c1cc(/N=N/c2ccc(S(=O)(=O)Nc3ccccn3)cc2)ccc1O` [Sulfasalazine, reference compound]: the “CC: Cell Cycle score” value is 0.10, the “CM: Cell morphology score” value is given as 0.010, the “CMI: Cell membrane integrity score” value was 0.060 and the “GSH: Glutathione score” value is on record as 0.030. Besides, the “MMP: Mitochondrial membrane depolarization score” value is 0.31, the “NMI1: Nuclear membrane integrity 1 score” value amounted to 0.14, the “NMI2: Nuclear membrane integrity 2 score” value was 0.63 and the “ROS: Reactive superoxide species score” value was determined as 0.090.
In the case of `Clc1cccc(Cl)c1N=C1NCCN1` [Clonidine, reference compound], the “CC: Cell Cycle score” value was 0.060, the “CM: Cell morphology score” value came out at 0.00, the “CMI: Cell membrane integrity score” value amounted to 0.030 and the “GSH: Glutathione score” value was 0.10. The “MMP: Mitochondrial membrane depolarization score” value was 0.010, the “NMI1: Nuclear membrane integrity 1 score” value came to 0.15, the “NMI2: Nuclear membrane integrity 2 score” value is listed as 0.040 and the “ROS: Reactive superoxide species score” value is on record as 0.040.
Take `CSc1ccc2c(c1)N(CCC1CCCCN1C)c1ccccc1S2` (stereo not shown) [Thioridazine, reference compound]: the “CC: Cell Cycle score” value was found to be 0.89, the “CM: Cell morphology score” value worked out at 1.00, the “CMI: Cell membrane integrity score” value is recorded as 1.00 and the “GSH: Glutathione score” value was determined as 1.00. Also, the “MMP: Mitochondrial membrane depolarization score” value is given as 1.00, the “NMI1: Nuclear membrane integrity 1 score” value is on record as 1.00, the “NMI2: Nuclear membrane integrity 2 score” value turned out to be 1.00 and the “ROS: Reactive superoxide species score” value was found to be 1.00.
`CCC(C)(C)C(=O)O[C@H]1C[C@@H](C)C=C2C=C[C@H](C)[C@H](CC[C@@H]3C[C@@H](O)CC(=O)O3)[C@H]21` [Simvastatin, reference compound]: the “CC: Cell Cycle score” value was found to be 0.12, the “CM: Cell morphology score” value was 0.030, the “CMI: Cell membrane integrity score” value turned out to be 0.080 and the “GSH: Glutathione score” value came out at 0.41. Moreover, the “MMP: Mitochondrial membrane depolarization score” value was found to be 0.060, the “NMI1: Nuclear membrane integrity 1 score” value was determined as 0.29, the “NMI2: Nuclear membrane integrity 2 score” value was 0.10 and the “ROS: Reactive superoxide species score” value was 0.11.
`CC/C(=C(\c1ccccc1)c1ccc(OCCN(C)C)cc1)c1ccccc1` [Tamoxifen, reference compound]: the “CC: Cell Cycle score” value is listed as 0.98, the “CM: Cell morphology score” value was 1.00, the “CMI: Cell membrane integrity score” value is 1.00 and the “GSH: Glutathione score” value worked out at 1.00. The “MMP: Mitochondrial membrane depolarization score” value is recorded as 1.00, the “NMI1: Nuclear membrane integrity 1 score” value is 1.00, the “NMI2: Nuclear membrane integrity 2 score” value is given as 0.99 and the “ROS: Reactive superoxide species score” value came out at 1.00.
As to `CC(CN1c2ccccc2Sc2ccccc21)N(C)C` (stereo not shown) [Promethazine, reference compound], the “CC: Cell Cycle score” value is 0.46, the “CM: Cell morphology score” value stood at 1.00, the “CMI: Cell membrane integrity score” value is recorded as 0.98 and the “GSH: Glutathione score” value was found to be 0.96. In addition, the “MMP: Mitochondrial membrane depolarization score” value was determined as 0.97, the “NMI1: Nuclear membrane integrity 1 score” value was 0.84, the “NMI2: Nuclear membrane integrity 2 score” value was 0.94 and the “ROS: Reactive superoxide species score” value is on record as 0.98.
With `CC(C)(C(=O)O)c1ccc(C(O)CCCN2CCC(C(O)(c3ccccc3)c3ccccc3)CC2)cc1` (stereo not shown) [Fexofenadine, reference compound], the “CC: Cell Cycle score” value is given as 0.020, the “CM: Cell morphology score” value amounted to 0.00, the “CMI: Cell membrane integrity score” value turned out to be 0.040 and the “MMP: Mitochondrial membrane depolarization score” value came to 0.020. Further, the “ROS: Reactive superoxide species score” value was 0.16.
Take `Cc1ccc(N(CC2=NCCN2)c2cccc(O)c2)cc1` [Phentolamine, reference compound]: the “CC: Cell Cycle score” value is reported as 0.040, the “CM: Cell morphology score” value was determined as 0.00, the “CMI: Cell membrane integrity score” value was determined as 0.16 and the “GSH: Glutathione score” value came out at 0.17. The “MMP: Mitochondrial membrane depolarization score” value came to 0.29, the “NMI1: Nuclear membrane integrity 1 score” value is listed as 0.64, the “NMI2: Nuclear membrane integrity 2 score” value was determined as 0.79 and the “ROS: Reactive superoxide species score” value is listed as 0.11.
`CN1CCN(CCCN2c3ccccc3Sc3ccc(Cl)cc32)CC1` [Prochlorperazine, reference compound]: the “CC: Cell Cycle score” value stood at 0.96, the “CM: Cell morphology score” value is given as 1.00, the “CMI: Cell membrane integrity score” value is 1.00 and the “GSH: Glutathione score” value was 1.00. In addition, the “MMP: Mitochondrial membrane depolarization score” value turned out to be 1.00, the “NMI1: Nuclear membrane integrity 1 score” value is recorded as 1.00, the “NMI2: Nuclear membrane integrity 2 score” value was found to be 0.99 and the “ROS: Reactive superoxide species score” value stood at 1.00.

Staying with this data set, now noted: HL60, 4 h, 5 nM–100 µM, probability (0–1) of high-risk class, n = 2.
In the case of `[H]/N=C(/N)N/C(=N/[H])NCCc1ccccc1` [Phenformin, reference compound], the “CHI: Cell Health Index” value turned out to be 0.41.
The same measure, in the same setting: the result for `COc1cc2c(Nc3ccc(Cl)c(Cl)c3F)ncnc2cc1OC[C@@H]1C[C@@H]2CN(C)C[C@@H]2C1` [Tesevatinib, reference compound] reads 0.92; that for `NC(=O)c1ncn([C@@H]2O[C@H](CO)[C@@H](O)[C@H]2O)n1` [Ribavirin, reference compound], 0.16.
Still for that read-out and setting: the result for `Clc1cccc(Cl)c1N=C1NCCN1` [Clonidine, reference compound] reads 0.14; that for `CSc1ccc2c(c1)N(CCC1CCCCN1C)c1ccccc1S2` (stereo not shown) [Thioridazine, reference compound], 0.85.
For the molecule `CC(CN1c2ccccc2Sc2ccccc21)N(C)C` (stereo not shown) [Promethazine, reference compound], the “CHI: Cell Health Index” value worked out at 0.71.
